In BindingDB's records for doi:10.1021/jm00168a011 (Merrell Dow Research Institute, 1990) one finds Kd data, which are given here for six compounds.

In general, Kd refers to the concentration at which binding is half-saturated. A lower Kd goes with tighter binding.

Structures can show the parent of a compound that is named as a salt.

The assay deals with T1, 5-hydroxytryptamine receptor 3A/3B (Mus musculus, UniProt P23979+Q9JHJ5).
T1 sequence (P23979 whole entry): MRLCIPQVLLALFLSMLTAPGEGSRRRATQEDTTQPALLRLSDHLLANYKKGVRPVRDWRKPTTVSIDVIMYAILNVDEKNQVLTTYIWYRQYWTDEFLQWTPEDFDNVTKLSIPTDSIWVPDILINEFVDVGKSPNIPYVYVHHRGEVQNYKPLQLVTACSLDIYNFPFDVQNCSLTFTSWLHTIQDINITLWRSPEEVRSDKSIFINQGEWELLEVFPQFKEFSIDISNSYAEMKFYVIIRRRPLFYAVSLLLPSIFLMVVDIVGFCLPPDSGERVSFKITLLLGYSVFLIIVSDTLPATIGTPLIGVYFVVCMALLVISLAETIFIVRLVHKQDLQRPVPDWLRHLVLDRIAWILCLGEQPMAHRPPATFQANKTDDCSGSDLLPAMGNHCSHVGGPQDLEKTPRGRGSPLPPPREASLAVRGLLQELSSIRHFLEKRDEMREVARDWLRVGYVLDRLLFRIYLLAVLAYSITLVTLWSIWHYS
T1 sequence (Q9JHJ5 whole entry): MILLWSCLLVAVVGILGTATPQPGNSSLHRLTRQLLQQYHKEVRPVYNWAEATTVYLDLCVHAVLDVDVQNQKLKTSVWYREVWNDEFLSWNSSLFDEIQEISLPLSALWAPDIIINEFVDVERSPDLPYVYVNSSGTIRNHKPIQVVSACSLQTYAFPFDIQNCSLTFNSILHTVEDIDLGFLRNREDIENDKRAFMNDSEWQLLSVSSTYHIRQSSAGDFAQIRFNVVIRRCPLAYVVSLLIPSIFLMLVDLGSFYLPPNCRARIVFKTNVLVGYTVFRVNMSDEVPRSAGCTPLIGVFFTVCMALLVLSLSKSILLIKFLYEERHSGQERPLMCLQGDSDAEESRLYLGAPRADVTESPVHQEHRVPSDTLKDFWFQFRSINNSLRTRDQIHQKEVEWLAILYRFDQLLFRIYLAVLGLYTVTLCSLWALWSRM
Put plainly: Binding affinity towards 5-hydroxytryptamine 3 receptor was determined by using [3H]-ICS 205-930 as radioligand in mouse N1E 115 cells.
As for `CN1[C@@H]2CC[C@H]1C[C@@H](OC(=O)c1cc(Cl)cc(Cl)c1)C2` [TROPANYL 3,5-DICHLOROBENZOATE], the Kd was determined as 6.2 nM. `CCN(CC)CCNC(=O)c1cc(Cl)c(N)cc1OC` [4-amino-5-chloro-N-[2-(diethylamino)ethyl]-2-methoxy-benzamide;hydrochloride]: the affinity, expressed as Kd, was 224 nM. `O=C(OC1CC2CCC(C1)N2)c1c[nH]c2ccccc12` (stereo unspecified) [NORTROPISETRON] displayed an equilibrium dissociation constant (Kd) of 0.724 nM. To `c1ccc2nc(N3CCNCC3)ccc2c1` [2-Piperazin-1-yl-quinoline (Quipazine)] belongs 2 nM. To `CN1[C@@H]2CC[C@H]1C[C@@H](OC(=O)c1c[nH]c3ccccc13)C2` [(3-ENDO)-8-METHYL-8-AZABICYCLO[3.2.1]OCT-3-YL 1H-INDOLE-3-CARBOXYLATE] belongs 0.813 nM; to `Cc1nccn1CC1CCc2c(c3ccccc3n2C)C1=O` (stereo unspecified) [NSC_68647], 13 nM.
